The structures appear in SMILES notation. Results filed as inconclusive are left out. Activity calls are given as the source filed them. No rule for the calls is given here.

The values below come from PubChem BioAssay AID488890 (Southern Research Specialized Biocontainment Screening …, 2010).

The assay relates to Mycobacterium tuberculosis non-replicating, growth inhibition. As to the kind of experiment: growth inhibition of non-replicating M. tuberculosis (AID 488890).
By IC50 is commonly meant the point on the concentration scale where inhibition reaches its midpoint. Consider `COc1ccc(C(=O)CC(=O)C(=O)NCCc2cccc(C)c2)cc1`, for which the IC50 is 4.42 µM.

With `O=C(c1ccc([N+](=O)[O-])cc1[N+](=O)[O-])N1CCc2ccccc21`, the IC50 was 3.34 µM.

With `Cc1ncsc1CCOC(=O)c1ccc([N+](=O)[O-])cc1`, the IC50 was 10.4 µM (inactive).

Turning to `COc1cccc(/C=N/N2C(=O)CSC2=S)c1O`, the IC50 was 23.9 µM (inactive).

Turning to `COc1ccc(N=N/C(=C\O)C(=O)c2ccco2)cc1`, the IC50 is 21.5 µM (inactive).

For `COC(=O)COc1cccc(NC(=O)c2ccc(Cl)cc2)c1`, the IC50 was 3.98 µM.

In the case of `CC(C)(O)C#Cc1ccc(C(=O)Nc2ccc3c(c2)OCO3)s1`, the IC50 was 5.97 µM.

As for `CC1(c2nnc(-c3ccccc3)o2)CC(c2ccc(Cl)cc2)=NO1` (stereo unspecified), the IC50 is 1.52 µM.

`O=C(Oc1cccc2cccnc12)c1ccc2c(c1)OCCO2`: the IC50 is 0.96 µM.

With `O=C(NC(=S)N1CCN(Cc2ccc3c(c2)OCO3)CC1)c1ccc(Cl)cc1`, the IC50 was 33.4 µM (inactive).

Take `CCCCCC1CC(CC(=O)NC(=S)Nc2ccc([N+](=O)[O-])cc2)C(=O)O1` (stereo unspecified): the IC50 is 6.68 µM.

With `O=C(N/N=C/c1cccc2nccnc12)c1ccncc1`, the IC50 was 1.13 µM.

Turning to `COC(=O)c1ccc(COC(=O)c2ccccn2)cc1`, the IC50 is 7.11 µM.

`COc1cc(/C=N/Nc2ccc(Cl)c(C(=O)O)c2)ccc1OC(=O)c1ccco1`: the IC50 was 11.9 µM (inactive).

For the compound `C/C(=N/NC(=O)c1cccc(C)c1)c1c(O)cc(C)oc1=O`, the IC50 is 9.19 µM.

For `CN1/C(=C\C=N\NC(=O)c2cccnc2)C(C)(C)c2ccccc21`, the IC50 was 46.5 µM (inactive).

`COc1ccc2nc(/N=C(\N)NC(=O)C(C)(C)C)nc(C)c2c1`: the IC50 is 17.4 µM (inactive).

For `CCCCNC(=O)COC(=O)c1cc(F)c(F)cc1Cl`, the IC50 is 5.61 µM.

Regarding `O=C1NC(=O)N(Cc2ccc(F)cc2)C(=O)/C1=C\c1ccc([N+](=O)[O-])s1`, the IC50 was 11.2 µM (inactive).

Regarding `Clc1cccc2c1Sc1ccccc1CC2N1CCNCC1` (stereo unspecified), the IC50 is 5.98 µM.

As to `O=C(N/N=C/C(Br)=C/c1ccccc1)c1ccncc1`, the IC50 is 3.89 µM.

Take `O=C(CCCSc1nc2ccccc2s1)NCc1ccco1`: the IC50 was 10.7 µM (inactive).

Consider `COc1ccc(CN2C(=O)/C(=C/c3ccncc3)SC2=S)cc1`, for which the IC50 is 39.3 µM (inactive).

As for `CN(C)CCCN(C(=O)CCc1ccccc1)c1nc2ccc(Cl)cc2s1`, the IC50 was 12.7 µM (inactive).

With `C/C(=N\O)c1cc(Cl)ccc1O`, the IC50 was 2.42 µM.

Consider `CC1=NN(c2ccccc2)C(=O)C1C(=O)c1ccccc1` (stereo unspecified), for which the IC50 is 15.9 µM (inactive).

In the case of `O=c1ccn(-c2ccccc2)[nH]1`, the IC50 is 7.52 µM.

As to `Cc1cc(=O)[nH]c(-n2nc(C)cc2C)n1`, the IC50 was 4.88 µM.

As for `COC(=O)C(O)(c1ccc(NC(=S)NC(=O)c2ccccc2)cc1)C(F)(F)F` (stereo unspecified), the IC50 is 14.8 µM (inactive).

In the case of `COc1cc(NC(=O)C/C(C)=N/NC(=O)c2cccs2)c(OC)cc1Cl`, the IC50 is 7.93 µM.

Turning to `CCCCCCCCCCn1cc(C(C)=O)c(=O)[nH]c1=O`, the IC50 was 4.74 µM.

Take `O=C(Nc1nccs1)c1ccc(COc2ccc(Cl)cc2)o1`: the IC50 was 10.4 µM (inactive).

Consider `CCOc1ccc(Nc2ccc([N+](=O)[O-])c3nonc23)cc1`, for which the IC50 was 1.72 µM.

With `Nc1ccccc1Nc1ccccc1`, the IC50 is 1.81 µM.

Consider `CN(C)CCCNc1cc(C(C)(C)C)nc2c(-c3ccc(Cl)cc3)cnn12`, for which the IC50 is 5.24 µM.

As to `NC(=O)COc1ccc2cc(-c3ccc(F)cc3)c(=O)oc2c1`, the IC50 was 18 µM (inactive).

Regarding `O=C(OCc1nnc(-c2ccccc2)o1)c1cc([N+](=O)[O-])ccc1Cl`, the IC50 is 6.28 µM.

`CCCCn1c(=O)c(C(=O)Nc2nnc(C(C)C)s2)c(O)c2ccccc21`: the IC50 was 1.87 µM.

As for `COc1ccc(NC(=O)c2ccc(-c3ccc([N+](=O)[O-])cc3)o2)cc1OC`, the IC50 is 3.93 µM.

Regarding `COc1cc(/C=C2\C(=O)N(c3ccc(S(N)(=O)=O)cc3)N=C2C)ccc1OC(=O)c1ccco1`, the IC50 was 7.44 µM.

With `O=c1c2c(nc3c(-c4ccc(Cl)cc4)c[nH]n13)CCC2`, the IC50 is 4.22 µM.

With `CC(C)N1C(=O)NC(=O)C2(Cc3cc([N+](=O)[O-])ccc3N(C)C2c2ccccc2)C1=O` (stereo unspecified), the IC50 is 14.7 µM (inactive).

For the compound `Cc1ccccc1Cn1cc(NC(=O)c2noc(C(C)C)c2[N+](=O)[O-])cn1`, the IC50 is 7.58 µM.

Take `COc1ccc2cc(C(=O)C3CCCN(Cc4cccc(C)n4)C3)ccc2c1` (stereo unspecified): the half-inhibitory concentration (IC50) was 8.11 µM.

For `Cc1csc(=Nc2cccnc2)n1CC1CCCCC1`, the IC50 is 17.5 µM (inactive).

For the compound `Cc1ccc2c(CC(=O)OCC(=O)Nc3ccc(Cl)cn3)coc2c1`, the IC50 was 15 µM (inactive).

`c1ccc(-c2nnc(SCc3cn4ccsc4n3)o2)cc1`: the IC50 was 11.1 µM (inactive).

Regarding `O=c1c2cc(Cl)ccc2nc(-c2ccccc2Cl)n1O`, the IC50 is 15.5 µM (inactive).

Turning to `Cc1cccc(Cn2ccc(NC(=O)c3ccc4c(c3)OCO4)n2)c1`, the IC50 was 4.51 µM.

In the case of `CN1C(=O)/C(=C/c2cccc(Cl)c2)Sc2ccc(C(=O)N3CCCC3)cc21`, the IC50 was 22 µM (inactive).

With `COc1ccc(C(=O)C=CNNC(=O)c2ccc(Cl)cc2)cc1`, the IC50 is 0.48 µM.

`CCOC(=O)c1ccc(NC2=CC(=O)C(=O)c3ccccc32)cc1`: the IC50 is 9.94 µM.

Consider `CSc1nc(=S)cc(C)[nH]1`, for which the IC50 was 6.23 µM.

Turning to `CCc1nnc(N/N=C/c2c(F)cccc2Cl)n1N`, the IC50 is 15.3 µM (inactive).

`CCOC(=O)CCS(=O)(=O)c1nc(-c2ccccc2)cc(C(F)(F)F)n1`: the IC50 is 0.99 µM.

For the compound `CC(C)(C)C(=O)/C=C/Nc1ccccc1O`, the IC50 was 4.66 µM.

`O=[N+]([O-])c1cccnc1N/N=C/c1ccccc1O`: the IC50 is 2.87 µM.

Regarding `Cc1cccc(C2=N/C(=C\c3cccnc3)C(=O)O2)c1`, the IC50 was 12.8 µM (inactive).

As to `CCOC(=O)c1c(C)n(C)c2ccc(OC(C)C(=O)OC)cc12` (stereo unspecified), the IC50 is 14.2 µM (inactive).

Regarding `O=C(Nc1ccc2c(c1)CCC2)c1ccc(Br)o1`, the IC50 is 7.88 µM.

In the case of `CCSc1ncc(/C=N/Nc2ccc(Cl)cc2)n1C`, the IC50 is 6.58 µM.

Take `Cc1ccc(C(=O)c2cncc(Br)c2)cc1`: the IC50 was 9.3 µM.

Regarding `O=C(CCc1ccccc1)N/N=C/c1cc(Br)ccc1O`, the IC50 was 0.44 µM.

Consider `O=C1OC(/C(=C\Nc2cc(Cl)ccc2O)[N+](=O)[O-])c2ccccc21` (stereo unspecified), for which the IC50 was 7.86 µM.

Take `O=C1/C(=C/c2cccs2)COc2ccccc21`: the IC50 was 13.9 µM (inactive).

On to `COc1ccccc1OCC(=O)N/N=C/C=C/c1ccc([N+](=O)[O-])o1`, for which the IC50 was 2.78 µM.

As for `CC(=O)OCCNc1cc(Sc2nc3ccccc3[nH]2)c2nonc2c1[N+](=O)[O-]`, the IC50 was 2.41 µM.

Take `CC(=O)c1ccc(NC(=O)c2cc(CC(C)C)on2)cc1`: the 50% inhibitory concentration (IC50) is 3.58 µM.

As to `Cc1ccc(-c2cc(C(F)F)nc(S(C)(=O)=O)n2)cc1`, the IC50 is 6.96 µM.

`O=C(OCc1nnc(-c2ccccc2)o1)c1ccc(Br)o1`: the IC50 is 9.14 µM.

On to `CN(C)CCCn1c(=O)n(CCc2ccccc2)c(=O)c2c3c(sc21)CCCCC3`, for which the IC50 was 16.9 µM (inactive).

As for `COc1ccc(C(=O)COC(=O)c2ccc(Cl)nc2)c(OC)c1`, the IC50 is 10.7 µM (inactive).

Consider `Cc1nc(Cl)nc(N(C)c2ccccc2)c1[N+](=O)[O-]`, for which the IC50 was 9.3 µM.

Regarding `COc1ccc(C(=O)NN/C(C)=C/C(=O)c2ccccc2)cc1`, the IC50 was 1.34 µM.

Consider `COc1cc(CNC2CCCC2)cc(Cl)c1OCc1ccccc1Cl`, for which the IC50 was 9.58 µM.

Consider `O=C(NCCCN1CCOCC1)c1c(O)c2cc(Br)cc(Br)c2[nH]c1=O`, for which the IC50 was 0.8 µM.

Regarding `NC(=O)CN1CCN(C2CC(=O)N(CCc3ccccc3)C2=O)CC1` (stereo unspecified), the IC50 is 19.9 µM (inactive).

For the compound `COc1ccc(OCCSc2nnc(Cc3cccc4ccccc34)n2N)cc1`, the IC50 was 23.6 µM (inactive).

As to `CC(NC(=O)COc1ccccc1F)C1CC2CCC1C2` (stereo unspecified), the IC50 is 0.42 µM.

Consider `Clc1ccccc1OCc1nnc(-c2ccccc2)o1`, for which the IC50 is 4.35 µM.

With `COC12C(COC(N)=O)C3=C(C(=O)C(C)=C(N)C3=O)N1CC1C2N1C` (stereo unspecified), the IC50 was 0.12 µM.

In the case of `Cc1cccc(NC(=O)COC(=O)CCc2c[nH]c3ccccc23)c1C`, the IC50 is 6.12 µM.

On to `CCCN(CCC)S(=O)(=O)c1ccc(C(=O)Nc2nnc(-c3cccc(OC)c3)o2)cc1`, for which the IC50 is 11.3 µM (inactive).

Regarding `O=C(O)CCCCCN1C(=O)CSC1=S`, the IC50 was 19.9 µM (inactive).

As for `CCCC(=O)Nc1cccc(-c2nc3ccccc3c(=O)o2)c1`, the IC50 was 0.97 µM.

Take `Cc1ccc(OC(=O)c2sc3ncn(C)c(=O)c3c2C)cc1`: the IC50 is 14.2 µM (inactive).

Turning to `CC12CC3CC(C)(C1)CC(C(=O)N1CCCC1)(C3)C2`, the IC50 is 24 µM (inactive).

Consider `CCN(Cc1ccccc1)c1ccc(/C=N/N=C(N)N)cc1`, for which the IC50 is 5.74 µM.

For `O=C(CCS(=O)(=O)Cc1ccccc1)Nc1ncc([N+](=O)[O-])s1`, the half-maximal inhibitory concentration (IC50) was 1.97 µM.

`CCOc1ccc(OCC(=O)Nc2ccc(OC)cc2)cc1`: the IC50 was 10.2 µM (inactive).

For `CC1=C(/C=C/C(C)=N\NC(=O)c2ccncc2)C(C)(C)CCC1`, the IC50 was 1.15 µM.

With `CC(/C=C/c1ccco1)=N\NC(=O)c1cccc(Cl)c1`, the IC50 was 4.86 µM.

`CCOc1ccc(C(=O)N/N=C(/C)C2C(=O)c3ccccc3C2=O)cc1`: the IC50 was 0.47 µM.

`O=C(COC(=O)CCC(=O)c1ccc(F)cc1)Nc1ccc(F)cc1F`: the IC50 was 24.6 µM (inactive).

As for `c1cncc(-c2noc(CC3CCCCC3)n2)c1`, the IC50 was 1.25 µM.

As for `Cc1ccc(CCC(=O)Nc2ccccc2F)s1`, the IC50 is 26.2 µM (inactive).

Consider `O=C1C=C(Nc2ccc(F)cc2)c2ccccc2C1=O`, for which the IC50 was 5.36 µM.

For `COC(=O)CCc1nc2c(C#N)c(-c3ccc(Cl)cc3)ccn2n1`, the IC50 is 24.3 µM (inactive).

Turning to `CCCS(=O)(=O)c1nnnn1-c1cccc(OC)c1`, the IC50 is 3.56 µM.

For `CCOC(=O)c1c(NC(=O)COC(=O)c2ccccn2)sc2c1CCC2`, the IC50 is 7.87 µM.

With `O=C(NCCC1CCCC1)c1cccs1`, the IC50 is 1.37 µM.
